Molecules are shown by their SMILES.

What is called IC50 is the concentration at which inhibition is half-maximal.

The assay has as its target T1, Serine/threonine-protein kinase Chk1 (Homo sapiens, UniProt O14757).
T1 sequence (O14757 whole entry): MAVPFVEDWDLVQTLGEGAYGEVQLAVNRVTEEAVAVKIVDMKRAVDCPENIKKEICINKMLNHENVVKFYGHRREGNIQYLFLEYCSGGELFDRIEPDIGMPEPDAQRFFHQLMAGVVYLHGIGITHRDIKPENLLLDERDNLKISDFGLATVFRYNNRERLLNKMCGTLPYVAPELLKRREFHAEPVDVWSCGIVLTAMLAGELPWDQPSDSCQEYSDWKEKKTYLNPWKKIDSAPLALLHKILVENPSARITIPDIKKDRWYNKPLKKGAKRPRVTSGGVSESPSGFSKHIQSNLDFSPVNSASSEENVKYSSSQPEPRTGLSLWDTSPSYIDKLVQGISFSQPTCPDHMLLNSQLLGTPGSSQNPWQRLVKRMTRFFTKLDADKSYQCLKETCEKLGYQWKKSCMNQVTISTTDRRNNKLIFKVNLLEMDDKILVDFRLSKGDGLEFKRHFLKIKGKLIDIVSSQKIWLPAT
Put plainly: Inhibiting Assay: The compounds of the invention were tested for activity against Chk-1 kinase using the materials and protocols set out below. Reaction Buffer: Base Reaction buffer: 20 mM Hepes (pH 7.5), 10 mM MgCl2, 1 mM EGTA, 0.02% Brij35, 0.02 mg/ml BSA, 0.1 mM Na3VO4, 2 mM DTT, 1% DMSO. Required cofactors are added individually to each kinase reaction Reaction Procedure:(i) Prepare indicated substrate in freshly prepared Base Reaction Buffer(ii) Deliver any required cofactors to the substrate solution above(iii) Deliver indicated kinase into the substrate solution and gently mix(iv) Deliver compounds in DMSO into the kinase reaction mixture(v) Deliver 33P-ATP (specific activity 0.01 μCi/μl final) into the reaction mixture to initiate the reaction.(vi) Incubate kinase reaction for 120 minutes at room temperature(vii) Reactions are spotted onto P81 ion exchange paper (Whatman #3698-915)(viii) Wash filters extensively in 0.1% phosphoric acid.(ix) Measure counts in scintillation counter. It is filed as […].

For the molecule `N#Cc1cnc(NC(=O)Nc2ccc(CCNCc3ccc(F)cc3)c(Br)c2)cn1`, the IC50 is 0.019 µM.

Values taken from ChEMBL document CHEMBL3638498, “Pharmaceutical compounds” (2014).
